Where two headings read alike, the source gives them in different places.
What was measured:
[1] = ATP-dependent transport of CLF into control wild type Sf21 membrane vesicles; type: biochemical
Description: (§1) The production of recombinant baculovirus was as described by de Waart et al. [Liver Int 2006 April; 26(3):362-368]. ABCC3 and ABCG2-recombinant baculovirus were a kind gift from Borst [Breedveld P. et al., Cancer Res 2004 Aug. 15; 64(16):5804-5811 and Borst P. et al., J Biol Chem 2001 Dec. 7; 276(49):46400-46407.]. ABCB11-recombinant baculovirus was a kind gift from Thompson [Thompson R J et al., Gastroenterology 2002 November; 123(5):1649-1658]. Sf21 cells grown at 27° C. were infected with ABCB11, ABCC2, ABCC3 and ABCG2-cDNA containing baculovirus. Cells were harvested at 2-4 days after infection. Membrane vesicle preparation was as described by de Waart et al. [Liver Int 2006 April; 26(3):362-368].
(§2) Transport studies with membrane vesicles were performed using the rapid filtration technique as described by Heijn M et al. [Am J Physiol 1992 January; 262(1 Pt 1):C104-C110]. Radiolabel was measured with a scintillation counter. When CLF was used as a probe, filters were placed in a glass tube, 0.1% Triton-X-100 was added and the tubes vortexed. Samples were pipetted in 96-well plates (Kartell, Noviglio, Italy) and the amount CLF quantitated by measurement of fluorescence at λexe 485 nm and λcm 520 nm using a NovoStar (BMG-labtech, Offenburg, Germany).

[2] = Biliary secretion study of CLF in wild type, Abcc2-/- and Abcc3-/- mice; type: in vivo; details: FVB, mouse, blood, intravenous, 100 μL of 1 mmol/L CLF, 120 minutes after administration, read-out: blood levels of CLF
Description: (§3) Mice received 100 μL of 1 mmol/L CLF by injection in the tail vein. Data represent means±SD. Plasma levels are expressed in nmol/L and levels in urine, liver and bile as percentage of administered dose. Significance was tested using two-sided Student's t-test: *P<0.05 for Abcc2^-/- vs wild type mice. Data represent means±SD. Abcc2^-/- mice (against a Friend virus B-type (FVB) background) were bred at the National Cancer Institute (Amsterdam, The Netherlands). Production and characterization of the Abcc2^-/- mice was as described by […] et al. [J Pharmacol Exp Ther 2006 July; 318(1):319-327]. Wild type and Abcc3^-/- mice (against an FVB background) were bred at the animal institute of the Academic Medical Center. Production and characterization of the Abcc3^-/- mice was as described by Zelcer et al. [J Hepatol 2006 April; 44(4):768-775]. For biliary secretion studies, the gall bladder was cannulated with PE10 polyethylene tubing and 100 μL (1 mmol/L) CLF was injected in the tail vein. Bile was collected in 10 minutes fractions; liver and blood were harvested at the end of the experiment. Homogenised livers were deproteinised by adding 2 volumes of MeOH, and bile and blood samples were diluted with 0.1% Triton-X-100. The amount CLF was quantitated by measurement of fluorescence as described above.

Abcc2 and Abcc3 = experiment: as above; type: in vivo; details: for cumulative biliary excretion of CLF / hepatic retention of CLF: 120 minutes after administration
Description: as §3

ABCB11 = molecular target: T1, ABCB11 (Homo sapiens, UniProt O95342); experiment: CLF inhibition of TC transport into ABCB11 containing Sf21 membrane vesicles; type: biochemical; details: ATP-dependent transport, read-out: concentration of CLF at which half maximal TC transport was observed
T1 construct: His tag (inferred from the anti-his probe used on the Western blot); made in house; host or cells: Sf21 insect cells, baculovirus (gift from Thompson); plasma membrane vesicles
Description: FIGS. 5A and 5B show CLF inhibition of DNP-SG and TC transport into ABCC2 (A) and ABCB11 (B) protein containing Sf21 membrane vesicles respectively. The values are expressed as a percentage of maximal ATP-dependent transport. Significance was tested using two-sided Student's t-test: *P<0.05 for transport in the presence vs. absence of inhibitor.
as §1, with “Membrane vesicle preparation was as described by de Waart et al. [Liver Int 2006 April; 26(3):362-368].” left out
as §2, with “When CLF was used as a probe, filters were placed in a glass tube, 0.1% Triton-X-100 was added and the tubes vortexed.” left out

T1 sequence (O95342 whole entry): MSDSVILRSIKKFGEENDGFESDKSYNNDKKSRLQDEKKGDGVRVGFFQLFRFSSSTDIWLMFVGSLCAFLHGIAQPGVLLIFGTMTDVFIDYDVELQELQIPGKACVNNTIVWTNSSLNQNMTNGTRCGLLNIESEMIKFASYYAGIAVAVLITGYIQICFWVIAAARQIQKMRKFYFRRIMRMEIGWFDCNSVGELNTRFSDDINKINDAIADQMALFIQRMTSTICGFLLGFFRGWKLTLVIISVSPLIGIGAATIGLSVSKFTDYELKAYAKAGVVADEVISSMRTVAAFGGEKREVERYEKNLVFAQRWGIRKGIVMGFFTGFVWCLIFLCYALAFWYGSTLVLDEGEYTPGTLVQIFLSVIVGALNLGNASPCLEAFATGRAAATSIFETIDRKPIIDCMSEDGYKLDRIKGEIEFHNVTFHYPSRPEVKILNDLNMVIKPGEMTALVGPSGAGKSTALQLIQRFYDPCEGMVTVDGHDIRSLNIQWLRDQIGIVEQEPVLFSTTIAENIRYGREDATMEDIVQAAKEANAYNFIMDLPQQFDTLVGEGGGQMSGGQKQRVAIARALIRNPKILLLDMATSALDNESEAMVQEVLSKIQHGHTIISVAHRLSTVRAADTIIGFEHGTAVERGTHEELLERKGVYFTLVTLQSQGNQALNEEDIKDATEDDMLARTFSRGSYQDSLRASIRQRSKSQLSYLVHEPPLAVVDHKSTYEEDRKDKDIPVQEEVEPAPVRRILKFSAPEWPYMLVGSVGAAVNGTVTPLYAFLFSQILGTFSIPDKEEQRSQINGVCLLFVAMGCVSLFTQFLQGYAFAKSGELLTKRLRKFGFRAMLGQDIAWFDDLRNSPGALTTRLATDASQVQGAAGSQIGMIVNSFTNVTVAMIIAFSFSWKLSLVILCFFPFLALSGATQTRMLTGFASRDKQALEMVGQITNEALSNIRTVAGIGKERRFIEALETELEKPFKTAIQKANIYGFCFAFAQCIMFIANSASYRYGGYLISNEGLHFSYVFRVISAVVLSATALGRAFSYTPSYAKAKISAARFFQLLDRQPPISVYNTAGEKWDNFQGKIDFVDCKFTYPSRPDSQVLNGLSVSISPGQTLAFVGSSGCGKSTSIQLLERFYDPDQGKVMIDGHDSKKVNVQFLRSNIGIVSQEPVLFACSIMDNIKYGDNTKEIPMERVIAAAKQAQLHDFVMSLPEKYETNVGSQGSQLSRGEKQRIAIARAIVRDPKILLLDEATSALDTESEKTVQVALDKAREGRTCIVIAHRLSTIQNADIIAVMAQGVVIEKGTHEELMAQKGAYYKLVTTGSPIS

CC(CCC(=O)NC(CCCCNC(=S)Nc1ccc(-c2c3ccc(=O)cc-3oc3cc(O)ccc23)c(C(=O)O)c1)C(=O)O)C1CCC2C3C(O)CC4CC(O)CCC4(C)C3CC(O)C12C (stereo not drawn) [CLF, cholyl lysyl fluorescein]
ATP-dependent uptake of CLF in control vesicles [1]: slight ATP-dependent uptake
concentration at 120 min ([2]; Abcc2-/- mice): 1310 ± 749 nM
concentration at 120 min ([2]; wt mice): 83 ± 21 nM
biliary output of CLF in Abcc3-/- mice in comparison with wild type mice (Abcc2 and Abcc3; 100 μL 1 mmol/L CLF in the tail vein): not affected
CLF dose excreted into bile within 20 minutes (Abcc2 and Abcc3; Abcc2-/- mice, 100 μL 1 mmol/L CLF in the tail vein): less than 2%
cumulative biliary excretion of CLF (Abcc2 and Abcc3; Abcc2-/- mice): 32 % of the administered dose
hepatic retention of CLF (Abcc2 and Abcc3; Abcc2-/- mice): 64 % of the administered dose
plasma and liver CLF contents in Abcc3-/- mice in comparison with wild type mice (Abcc2 and Abcc3; after 2 hours): no differences
CLF dose excreted into bile within 20 minutes (Abcc2 and Abcc3; wild type mice, 100 μL 1 mmol/L CLF in the tail vein): ~70%
cumulative biliary excretion of CLF (Abcc2 and Abcc3; wild type mice): 85 % of the administered dose
hepatic retention of CLF (Abcc2 and Abcc3; wt mice): 1 % of the administered dose
IC50 (ABCB11): ~10 µM

Reference: patent US8318504B2, “MRP2 efflux pathway prognostic method” (priority 2009, dated 2012)
